# From patent US20160051594A1, “Therapeutic Compositions and Uses Thereof” (MANUKA HEALTH NEW ZEALAND LIMITED, priority 2013, published 2016)
# Assays:
# [1] = test system: human colorectal cancer cell line HCT-116; test: Apoptotic assay (PE Annexin V, flow cytometry), HCT-116; format: cell-based; details: for % Apoptosis: 50 hours
# Procedure: (§1) The human colorectal cell line HCT-116 was obtained from the American Type Culture Collection (Rockville, Md.). The butyrate resistant cell line was derived from HCT-116 by culturing the parental cells in increasing concentrations of butyrate as previously described in Bordonaro […]. The activation of beta-catenin by Wnt signaling mediates the effects of histone deacetylase inhibitors. Exp Cell Res. 2007; 313:1652-66 (including references therein). Colorectal cells were grown in alpha-MEM medium with 10% fetal bovine serum and antibiotics. The concentration of CAPE in the propolis-cyclodextrin complex CD1 was 1.79 μg/100 μg propolis solid encapsulated in the cyclodextrin, or 0.41 μg/100 μg cyclodextrin complex. Stock solutions were prepared in dimethyl sulfoxide, except for butyrate, which was dissolved in water at 1 M concentration. […] All cells (floating and attached) were harvested and stained for apoptotic and necrotic markers using a PE Annexin V Apoptosis Detection Kit I (BD Biosciences, #559763). Flow cytometry analyses were carried out with FACS Aria II and DiVa software. […] All data are presented as mean±standard deviation from at least three sets of independent experiments. Student T-test analysis was used to determine the significance of statistical differences. Differences were considered significant at P<0.05.
# [2] = test system: HCT-116-R cells (butyrate resistant, derived from HCT-116); test: Apoptotic assay (PE Annexin V, flow cytometry), butyrate-resistant HCT-116-R; format: cell-based, human; details: for % Apoptosis: HCT-116-R, 50 hours
# Procedure: as §1
# [3] = test system: human colorectal adenocarcinoma cells (DLD-1); test: MTT proliferation assay, DLD-1 cells (Examples 2 and 3); format: cell-based
# Procedure: Test samples shown below in Table 3 were assessed for their ability to modulate the viability and proliferation of human colorectal adenocarcinoma cells (DLD-1) as assessed by the MTT assay. A positive control, 5-Fluorouracil (5-FU) was included in addition to an unsupplemented cell control (negative control) in the study. All samples were normalized to 200 μg/ml total solids.
# Thus, DLD-1 colon cancer cells were exposed to: • a tincture originally containing 25% solids by mass propolis which then diluted in the test solution to give 200 μg/ml total solids. The tincture was used to manufacture the cyclodextrin-encapsulated propolis samples. • Cyclodextrin propolis (γ-cyclodextrin encapsulated with 25% propolis tincture), CD1 from Table 2 in Example 1 • Cyclodextrin propolis+CAPE (γ-cyclodextrin encapsulated 25% propolis tincture with added CAPE to double the concentration of CAPE relative to the tincture), CD2 from Table 2 in Example 1 • γ-cyclodextrin alone (CAVAMAX W8 food gamma cyclodextrin) • 5-flurorouracil at 7.50 ng/ml as a positive control
# All cyclodextrin-encapsulated samples and γ-cyclodextrin alone were assayed on a per weight of sample, and so contain at most 50 μg/ml total solids as propolis.
# Human colorectal adenocarcinoma epithelial cell lines were revived from cryostorage and cultured in the presence of the test and reference samples. The culture conditions for the cells were those described by the supplier of the cells (ATCC). An MTT assay was then performed on the cultures to determine the effect of the samples on the cell proliferation.
# • 1. The human colorectal adenocarcinoma cells (DLD-1) obtained from the American Type Culture Collection USA were revived from cryostorage. • 2. Following initial propagation using the media described above (see Medium Preparation), the culture was subcultured using the trypsin-EDTA as follows. The media was removed and 5 ml of the trypsin-EDTA solution added and incubated at 37° C. for 5 min or until all the cells had detached. The trypsin was neutralised by adding an equal volume of DMEM medium and the culture centrifuged at 300 g (1200 rpm) for 5 min at 4° C. • 3. The supernatant was decanted and the cell pellets resuspended in medium DMEM, FBS (10%), penicillin (100 units/ml), streptomycin (100 μg/ml). The cells were cultured at 37° C. in 5% CO2/95% air. • 4. After reaching confluence, the cells were detached using trypsin-EDTA and centrifuged as described in 2 above. • 5. The supernatants were discarded and the cells resuspended in DMEM and supplements as described in 3 above at 7.5×10^4 cells per ml. A total volume of 23 mls of the cell suspension was required. • 6. Into each well of three 96 well plates, 180 μl of the cells ([…]) or medium was added as indicated in the plate layout below. The plates were incubated at 5% CO2/95% air at 37° C. for 8 h which was sufficient to allow the cells to strongly adhere. • 7. To each well, 20 μl of each of the test samples or positive control was added as indicated in the diagrams above. To the wells labelled ‘medium’ or ‘cells only’, 20 μl of 15% ETOH/HBSS was added. Each sample was assessed in replicates of 6, while the controls on all three plates were assessed in replicates of 9 (combined triplicates) • 8. The total volume in each well was 200 μl. • 9. The plates were incubated at 37° C. in 5% CO2/95% air for 19 h.
# • 1. On completion of the incubation, 20 μl of MTT working solution (5 mg/ml) was added to all wells and incubated for 2 hr at 37° C. in 5% CO2/95% air. • 2. 100 μl of MTT lysis buffer was then added and the plates incubated for 3 hr at 37° C. on a shaker in 5% CO2/95% air, followed by pipetting to break up and dissolve the crystals until fully solubilized. The plates were centrifuged at 1200 rpm for 10 minutes to pelletize any remaining insoluble material. From each well 200 μl aliquots were transferred to fresh 96 well plates. The plates were read by a VersaMax microplate reader at 570 nm. • 3. […]
# [4] = test system: human oesophageal squamous cell carcinoma cell line (KYSE-30); test: Gastro-intestinal cancer anti-proliferative MTT assay, KYSE-30 (Examples 5-9); format: cell-based; details: Example 9
# Procedure: Sample CD5 γ-cyclodextrin as prepared in Example 1 was assessed for its ability to modulate the viability and proliferation of human colorectal adenocarcinoma cells (DLD-1); human colon cancer cell line (HCT-116); human gastric carcinoma cell line (NCI-N87); and human oesophageal squamous cell carcinoma cell line (KYSE-30) as assessed by the MTT assay. The positive control, 5-fluorouracil (5-FU) was included at three concentrations; in addition to an unsupplemented cell control as a negative control in the study. [Do we include test compounds for comparison?.
# The four human gastrointestinal carcinoma cell lines were revived from cryostorage and cultured in the presence of the test and reference samples. An MTT assay was then performed on the cultures to determine the effect of the samples on the cell viability and proliferation.
# The test sample, and all other test samples in Examples 5-8 were dissolved in 15% ethanol/Hanks Balanced Salt Solution (ETOH)/HBSS to a concentration of 2 mg/mL solids. In the assay the final concentration of the samples was 200 μg/ml with a final EtOH concentration of 1.5%.
# • 1. Human colorectal adenocarcinoma cells (ATCC CCI-221, DLD-1)(ATCC, Bethesda, Md., USA) • 2. Human gastric carcinoma cells (ATCC CRL-5822, NCI-N87)(ATCC, Bethesda, Md., USA) • 3. Human oesophageal squamous cell carcinoma (ECACC, KYSE-30)(Sigma Aldrich, Auckland, NZ) • 4. Human colon carcinoma cells (ECACC HCT-116)(Sigma Aldrich, Auckland, NZ) • 5. Penicillin-streptomycin solution: 10000 units/ml penicillin, 10 mg/ml streptomycin in 0.9% NaCl (Sigma Cat #P-0781). Stored at −20° C. • 6. For DLD-1 cells: DMEM culture medium (Invitrogen Cat #12100-046). Stored at 4° C. • 7. For NCI-N87 cells: RPMI-1640 medium modified to contain 2 mM L-glutamine, 10 mM HEPES, 1 mM sodium pyruvate, 4500 mg/L glucose, and 1500 mg/L sodium bicarbonate (Sigma R6504). Stored at 4° C. • 8. For KYSE-410 cells: RPMI-1640 medium modified to contain 2 mM L-glutamine (Sigma R6504). Stored at 4° C. • 9. For HCT-116 cells: McCoy's 5A medium modified to contain 2 mM L-glutamine (Sigma M48792). Stored at 4° C. • 10. […]
compound,measurement,setting,value
"O=C(/C=C/c1ccc(O)c(O)c1)OCCc1ccccc1 [CAPE, caffeic acid phenethyl ester]",% Apoptosis,"[1]; HCT-116, 1.2 ug/ml",18.3%
same,apoptosis relative to the negative control,"[1]; HCT-116, CAPE 1.2 ug/ml",no significant increase in apoptosis
same,% Apoptosis,[2]; 1.2 ug/ml,9.7%
same,apoptosis relative to the negative control,"[2]; HCT-R, CAPE 1.2 ug/ml alone",did not undergo significant apoptosis
same,Mean (OD 570 nm),"[3]; DLD-1, 200 μg/ml",0.0777
"OC[C@H]1O[C@@H]2O[C@H]3[C@H](O)[C@@H](O)[C@@H](O[C@H]4[C@H](O)[C@@H](O)[C@@H](O[C@H]5[C@H](O)[C@@H](O)[C@@H](O[C@H]6[C@H](O)[C@@H](O)[C@@H](O[C@H]7[C@H](O)[C@@H](O)[C@@H](O[C@H]8[C@H](O)[C@@H](O)[C@@H](O[C@H]9[C@H](O)[C@@H](O)[C@@H](O[C@H]1[C@H](O)[C@H]2O)O[C@@H]9CO)O[C@@H]8CO)O[C@@H]7CO)O[C@@H]6CO)O[C@@H]5CO)O[C@@H]4CO)O[C@@H]3CO [CAVAMAX W8 Food gamma Cyclodextrin, gamma-cyclodextrin]",inhibition at 200 µg/mL,"[4]; Homo sapiens, KYSE-30, KYSE-30, 200 μg/ml",8.8%
same,Mean (OD 570 nm),"[4]; KYSE-30, 200 μg/ml",0.3056
same,% inhibition,"[4]; KYSE-30, 200 μg/ml, listed as Gamma-CD",8.85%
same,% inhibition,"[3]; DLD-1, 200 μg/ml",9.11%
same,Mean (OD 570 nm),"[3]; DLD-1, 200 μg/ml",0.6405
same,inhibition at 200 µg/mL,"[3]; Homo sapiens, DLD-1, DLD-1, 200 μg/ml",9.1%
O=c1cc(-c2ccccc2)oc2cc(O)cc(O)c12 [Chrysin],Mean (OD 570 nm),"[3]; DLD-1, 200 μg/ml",0.1233
O=c1c(O)c(-c2ccccc2)oc2cc(O)cc(O)c12 [Galangin],Mean (OD 570 nm),"[3]; DLD-1, 200 μg/ml",0.1411
CCCC(=O)O [butyrate],% Apoptosis,"[1]; HCT-116, 5 mM",57.5%
same,apoptosis relative to cells only,"[1]; HCT-116, butyrate 5 mM",35%
same,% Apoptosis,[2]; 5 mM,11.2%
